Bounds are passed on as bounds.

One data set deals with HL60/ADR cells. As to the kind of experiment: Assay for reversal of Adriamycin resistance (cell growth, MTS). In kind it is cell-based, human. The conditions noted are these: test compound in addition to Adriamycin, samples diluted to 20 μM, 25 μl per 100 μl well, 72 hours. The source says: HL60/ADR is a continuous cell line, which was selected for Adriamycin™ resistance by culturing HL60, a human acute myeloblastic leukemia cell line, in increasing concentrations of Adriamycin™ until a highly resistant variant was attained. (McGrath, T., et al., Biochem. […] Marquardt, D. and Center, M. S., Cancer Res., 52: 3157, (1992); and Marquardt, D., et al., Cancer Res., 50: 1426, (1990)). […] Cells were harvested; washed twice with assay medium (same as culture media); counted; and diluted to 2×10^5 cells/ml in assay medium. Fifty μl of cells were aliquoted into wells of a 96 well tissue culture plate. One column of each 96 well plate served as a negative control and received assay medium containing no cells. Test compounds and references compounds were dissolved in dimethyl sulfoxide (DMSO) at a concentration of 5 mM. […] Assay standards were run in quadruplicate. 25 μl of 0.4% DMSO was added to four wells as a solvent control. […] The plates were incubated at 37° Centigrade for 72 hours in a humidified incubator with a 5% CO2 atmosphere. A CellTiter96 Aqueous Assay Kit (Promega) was used to measure cell viability and vitality via […] of a tetrazolium salt. The assay was performed in accordance with the vendors instructions, which required 2 ml of MTS reagent being mixed with 0.1 ml of PMS reagent and 20 μl of this solution was added to each well. The plates were incubated for 3 hours at 37° C. Absorbance was determined at 490 nm using a microtitre plate reader. The ability of a test compound to reverse the resistance of HL60/ADR cells to Adriamycin was determined by comparison of the absorbance of the wells containing a test compound in addition to Adriamycin with the absorbance of wells containing Adriamycin without a test compound. Controls were used to eliminate background and to ensure the results were not artifactual. The results of the assay are expressed as percent inhibition of cell growth.

Turning to `CCCc1c(OCCCOc2cc(O)c(-c3ccc(F)cc3)cc2CC)cccc1[S+]([O-])c1ccccc1C(=O)O` (stereo not drawn) [Example 16, 2-[2-Propyl-3-[3-[2-ethyl-4-(4-fluorophenyl)-5-hydroxyphenoxy]propoxy]phenylsulfinyl]benzoic acid], the melting point was > 100 °C (dec.). Besides, the “% Inhibition (percent inhibition of cell growth)” value with HL60/ADR cells is 35%.
The corresponding values for `CCCc1c(Cc2ccccc2C(=O)O)cccc1OCCCOc1cc(O)c(-c2ccc(F)cc2)cc1CC` [Example 14, 2-[[2-Propyl-3-[3-[2-ethyl-5-hydroxy-4-(4-fluorophenyl)phenoxy]propoxy]phenyl]methyl]benzoic acid] are 150 to 151 °C and 58%.
In the case of `CCCCc1c(OCCCOc2cc(O)c(-c3ccc(F)cc3)cc2CC)cccc1Oc1ccccc1C(=O)O` (hydrate or solvate) [Example 11, 2-[2-Butyl-3-[3-[2-ethyl-5-hydroxy-4-(4-fluorophenyl)phenoxy]propoxy]phenoxy]benzoic acid hydrate], the melting point is 62 to 64 °C.
With `CCCc1c(OCCCOc2ccc(C(C)=O)c(OC)c2CCC)ccc2c1OC(C(=O)O)CC2` (stereo not drawn) [Example 18, 8-Propyl-7-[3-[4-acetyl-3-methoxy-2-propylphenoxy]propoxy]-3,4-dihydro-2H-1-benzopyran-2-carboxylic acid], the “% Inhibition (percent inhibition of cell growth)” value with HL60/ADR cells is on record as 67%.
Turning to `CCCc1c(OCCCOc2cc(O)c(-c3ccc(F)cc3)cc2CC)cccc1Oc1cc(F)ccc1C(=O)O` [Example 7, 4-Fluoro-2-[2-propyl-3-[3-[2-ethyl-5-hydroxy-4-(4-fluorophenyl)phenoxy]propoxy]phenoxy]benzoic acid], the melting point is 62 to 64 °C. For the same molecule, the “% Inhibition (percent inhibition of cell growth)” value with HL60/ADR cells is reported as 72%.
Take `CCCc1c(OCCCOc2cc(O)c(-c3ccc(F)cc3)cc2CC)cccc1Oc1cccc(F)c1C(=O)[O-].[Na+]` [Example 6, 2-Fluoro-6-[2-propyl-3-[3-[2-ethyl-5-hydroxy-4-(4-fluorophenyl)phenoxy]propoxy]phenoxy]benzoic acid disodium salt hydrate]: the “% Inhibition (percent inhibition of cell growth)” value with HL60/ADR cells is listed as 35%.
Turning to `CCCc1c(OCCCOc2cc(O)c(-c3ccc(F)cc3)cc2CC)cccc1Sc1ccccc1C(=O)O` [Example 15, 2-[2-Propyl-3-[3-[2-ethyl-4-(4-fluorophenyl)-5-hydroxyphenoxy]propoxy]thiophenoxy]benzoic acid], the melting point lay in the range of 153 to 155 °C. For the same molecule, the “% Inhibition (percent inhibition of cell growth)” value in the data set with HL60/ADR cells is given as 73%.
With `CCCc1c(OCCCOc2cc(O)c(-c3ccc(F)cc3)cc2CC)cccc1C(=O)c1ccccc1C(=O)O` [Example 13, 2-[2-Propyl-3-[3-[2-ethyl-5-hydroxy-4-(4-fluorophenyl)phenoxy]propoxy]benzoyl]benzoic acid], the “% Inhibition (percent inhibition of cell growth)” value in the data set on HL60/ADR cells is listed as 64%.
For the molecule `CCCCc1c(OCCCOc2cc(O)c(-c3ccc(F)cc3)cc2CC)cccc1Oc1ccccc1C(=O)O` [Example 11, 2-[2-Butyl-3-[3-[2-ethyl-5-hydroxy-4-(4-fluorophenyl)phenoxy]propoxy]phenoxy]benzoic acid hydrate], the “% Inhibition (percent inhibition of cell growth)” value in the data set on HL60/ADR cells stood at 47%.
Same read-out and setting: the result for `CCCc1c(OCCCCOc2cc(O)c(-c3ccc(F)cc3)cc2CC)cccc1Oc1ccccc1C(=O)O` [Example 9, 2-[2-Propyl-3-[4-[2-ethyl-5-hydroxy-4-(4-fluorophenyl)-phenoxy]butoxy]phenoxy]benzoic acid sesquihydrate] reads 61%.
Still for that read-out and setting: the result for `CCCc1c(OCCCOc2cc([O-])c(-c3ccccc3)cc2CC)cccc1Oc1cccc(F)c1C(=O)[O-].[Na+].[Na+]` [Example 4, 2-Fluoro-6-[2-propyl-3-[3-(2-ethyl-5-hydroxy-4-phenylphenoxy)propoxy]phenoxy]benzoic acid disodium salt] reads 38%.
Consider `CCCc1c(OCCCOc2cc(O)c(-c3ccccc3)cc2CC)cccc1Oc1ccccc1C(=O)[O-].[Na+]` [Example 2, 2-[2-Propyl-3-[3-(2-ethyl-5-hydroxy-4-phenylphenoxy)-propoxy]phenoxy]benzoic acid sodium salt hemihydrate], for which the “% Inhibition (percent inhibition of cell growth)” value with HL60/ADR cells came to 63%.
`CCCc1c(OCCCOc2cc(O)c(-c3ccc(F)cc3)cc2CC)cccc1S(=O)(=O)c1ccccc1C(=O)O` (hydrate or solvate) [Example 17, 2-[2-Propyl-3-[3-[2-ethyl-4-(4-fluorophenyl)-5-hydroxyphenoxy]propoxy]phenylsulfonyl]benzoic acid hydrate] registered a melting point of 80 to 90 °C.
As to `CCCc1c(OCCCOc2cc(O)c(-c3ccc(F)cc3)cc2CC)ccc2c1OC(C(=O)O)CC2` (stereo not drawn) [Example 1, 8-Propyl-7-[3-[4-(4-fluorophenyl)-2-ethyl-5-hydroxyphenoxy]propoxy]-3,4-dihydro-2H-1-benzopyran-2-carboxylic acid], the “% Inhibition (percent inhibition of cell growth)” value with HL60/ADR cells turned out to be 54%.
The same measure, in the same setting: with `CCc1cc(-c2ccc(F)cc2)c(O)cc1OCCCOc1cccc(Oc2ccccc2C(=O)O)c1Cc1ccccc1` [Example 12, 2-[2-(Phenylmethyl)-3-[3-[2-ethyl-5-hydroxy-4-(4-fluorophenyl)phenoxy]propoxy]phenoxy]benzoic acid] the figure was 62%.
Turning to `CCCc1c(OCCCCCOc2cc(O)c(-c3ccc(F)cc3)cc2CC)cccc1Oc1ccccc1C(=O)O` [Example 8, 2-[2-Propyl-3-[5-[2-ethyl-5-hydroxy-4-(4-fluorophenyl)phenoxy]pentoxy]phenoxy]benzoic acid], the melting point was 65 °C (dec.). Also, in the data set with HL60/ADR cells, the “% Inhibition (percent inhibition of cell growth)” value is given as 57%.
`CCCc1c(OCCCOc2cc(O)c(-c3ccc(F)cc3)cc2CC)cccc1S(=O)(=O)c1ccccc1C(=O)O` [Example 17, 2-[2-Propyl-3-[3-[2-ethyl-4-(4-fluorophenyl)-5-hydroxyphenoxy]propoxy]phenylsulfonyl]benzoic acid hydrate]: the “% Inhibition (percent inhibition of cell growth)” value in the data set on HL60/ADR cells came out at 25%.
In turn, `CCCc1c(OCCCCOc2cc(O)c(-c3ccc(F)cc3)cc2CC)cccc1Oc1ccccc1C(=O)O` (hydrate or solvate) [Example 9, 2-[2-Propyl-3-[4-[2-ethyl-5-hydroxy-4-(4-fluorophenyl)-phenoxy]butoxy]phenoxy]benzoic acid sesquihydrate] showed a melting point of 65 to 68 °C.
As to `CCc1cc(-c2ccc(F)cc2)c(O)cc1OCCCOc1cccc(Oc2ccccc2C(=O)O)c1CC(C)C` [Example 10, 2-[2-(2-Methylpropyl)-3-[3-[2-ethyl-5-hydroxy-4-(4-fluorophenyl)phenoxy]propoxy]phenoxy]benzoic acid], the melting point fell in the range of 48 to 49 °C. Moreover, the “% Inhibition (percent inhibition of cell growth)” value in the data set with HL60/ADR cells is 49%.
For the molecule `CCCc1c(OCCCOc2cc(O)c(-c3ccc(F)cc3)cc2CC)cccc1Oc1ccccc1C(=O)[O-].[Na+]` [Example 5, 2-[2-Propyl-3-[3-[2-ethyl-4-(4-fluorophenyl)-5-hydroxyphenoxy]propoxy]phenoxy]benzoic acid sodium salt], the “% Inhibition (percent inhibition of cell growth)” value with HL60/ADR cells is 23%.
Consider `CCCc1c(OCCCOc2cc([O-])c(-c3ccccc3)cc2CC)cccc1Oc1ccccc1-c1nnn[n-]1.[Na+].[Na+]` [Example 3, 5-Ethyl-4-[3-[2-propyl-3-[2-(2H-tetrazol-5-yl)phenoxy]phenoxy]propoxy][1,1′-biphenyl]-2-ol disodium salt sesquihydrate], for which the “% Inhibition (percent inhibition of cell growth)” value in the data set on HL60/ADR cells is given as 55%.

The values above are taken from patent publication US6673813B2, “Methods for identifying and treating resistant tumors” (priority 1994, dated 2004).
